In ChEMBL document CHEMBL1201862, “PubChem BioAssay data set” (2004):
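Each compound was tested at five concentrations against cells in 96-well plates for 48 hours. The concentration for 50% growth inhibition is given as GI50.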 Activity calls are given as the source filed them. No stated cut-off is given here; in the data, active = GI50 up to about 1.1 µM and inactive = higher.

Legend:
Experiment in all cases: DTP human tumour cell line panel, 48 h
MDA-N = system: MDA-N
T47D = system: T47D
RPMI-8226 = system: RPMI-8226
TK-10 = system: TK-10
SW-620 = system: SW-620
RXF 393 = system: RXF 393
NCI-H23 = system: NCI-H23
DU-145 = system: DU-145
A549 = system: A549
COLO 205 = system: COLO 205
IGROV-1 = system: IGROV-1
HL-60 = system: HL-60
SNB-75 = system: SNB-75
NCI-H226 = system: NCI-H226
UACC-257 = system: UACC-257
OVCAR-8 = system: OVCAR-8
SK-MEL-2 = system: SK-MEL-2
BT-549 = system: BT-549
SF-539 = system: SF-539
HOP-62 = system: HOP-62

Row | SMILES | GI50 (MDA-N) | GI50 (T47D) | GI50 (RPMI-8226) | GI50 (TK-10) | GI50 (SW-620) | GI50 (RXF 393) | GI50 (NCI-H23) | GI50 (DU-145) | GI50 (A549) | GI50 (COLO 205) | GI50 (IGROV-1) | GI50 (HL-60) | GI50 (SNB-75) | GI50 (NCI-H226) | GI50 (UACC-257) | GI50 (OVCAR-8) | GI50 (SK-MEL-2) | GI50 (BT-549) | GI50 (SF-539) | GI50 (HOP-62)
1 | O=CC(=C(I)I)c1ccccc1 | 2.04 µM (inactive) | 3.55 µM (inactive) | 0.977 µM (active) | 2.45 µM (inactive) | 0.728 µM (active) | 1.88 µM (inactive) | 2.05 µM (inactive) | 7.45 µM (inactive) | 20.2 µM (inactive) | 2.51 µM (inactive) | 4.06 µM (inactive) | 0.0635 µM (active) | 2.64 µM (inactive) | 13.4 µM (inactive) | 2.9 µM (inactive) | 2.46 µM (inactive) | 6.49 µM (inactive) | 4.38 µM (inactive) | 2.35 µM (inactive) | 7.24 µM (inactive)
2 | O=C(O)c1ccc(C(=O)Nc2cccc3ccccc23)c(C(=O)O)c1 | > 100 µM (inactive) | > 100 µM (inactive) | > 100 µM (inactive) | > 100 µM (inactive) | > 100 µM (inactive) | > 100 µM (inactive) | > 100 µM (inactive) | > 100 µM (inactive) | > 100 µM (inactive) | > 100 µM (inactive) | > 100 µM (inactive) | > 100 µM (inactive) | > 100 µM (inactive) | > 100 µM (inactive) | > 100 µM (inactive) | > 100 µM (inactive) | > 100 µM (inactive) | > 100 µM (inactive) | > 100 µM (inactive) | > 100 µM (inactive)
3 | COc1cc(/C=C/c2ccccn2)cc(OC)c1OC | > 10 µM (inactive) | > 10 µM (inactive) | > 10 µM (inactive) | > 10 µM (inactive) | > 10 µM (inactive) | > 10 µM (inactive) | > 10 µM (inactive) | > 10 µM (inactive) | > 10 µM (inactive) | > 10 µM (inactive) | > 10 µM (inactive) | > 10 µM (inactive) | 7.78 µM (inactive) | > 10 µM (inactive) | > 10 µM (inactive) | > 10 µM (inactive) | > 10 µM (inactive) | > 10 µM (inactive) | > 10 µM (inactive) | > 10 µM (inactive)
4 | NNC(=O)Cn1c2ccc(Br)cc2c2nc3ccccc3nc21 | > 100 µM (inactive) | > 100 µM (inactive) | > 100 µM (inactive) | 56 µM (inactive) | > 100 µM (inactive) | 23.2 µM (inactive) | 20.4 µM (inactive) | > 100 µM (inactive) | 94.8 µM (inactive) | > 100 µM (inactive) | 31 µM (inactive) | – | > 100 µM (inactive) | > 100 µM (inactive) | 76.4 µM (inactive) | 54.3 µM (inactive) | 19.1 µM (inactive) | > 100 µM (inactive) | > 100 µM (inactive) | 19.8 µM (inactive)
5 | COC(=O)/C(C#N)=C1\NC(=O)CC(c2ccccc2)C1C#N (stereo not given) | > 100 µM (inactive) | > 100 µM (inactive) | > 100 µM (inactive) | > 100 µM (inactive) | > 100 µM (inactive) | > 100 µM (inactive) | – | > 100 µM (inactive) | > 100 µM (inactive) | > 100 µM (inactive) | > 100 µM (inactive) | > 100 µM (inactive) | > 100 µM (inactive) | > 100 µM (inactive) | > 100 µM (inactive) | > 100 µM (inactive) | > 100 µM (inactive) | > 100 µM (inactive) | > 100 µM (inactive) | > 100 µM (inactive)
6 | CN(C)NC(=S)Nc1ccccc1Br | > 100 µM (inactive) | > 100 µM (inactive) | > 100 µM (inactive) | > 100 µM (inactive) | > 100 µM (inactive) | > 100 µM (inactive) | > 100 µM (inactive) | > 100 µM (inactive) | > 100 µM (inactive) | > 100 µM (inactive) | > 100 µM (inactive) | > 100 µM (inactive) | 46.5 µM (inactive) | > 100 µM (inactive) | > 100 µM (inactive) | > 100 µM (inactive) | > 100 µM (inactive) | > 100 µM (inactive) | > 100 µM (inactive) | –
7 | O=C1NC(c2c(Cl)cccc2Cl)Nc2ccccc21 (stereo not given) | 21.5 µM (inactive) | > 100 µM (inactive) | 50.5 µM (inactive) | > 100 µM (inactive) | 30.5 µM (inactive) | 70 µM (inactive) | – | 29.2 µM (inactive) | 54.6 µM (inactive) | 49.4 µM (inactive) | 21.2 µM (inactive) | 18 µM (inactive) | 2.89 µM (inactive) | 40.2 µM (inactive) | > 100 µM (inactive) | 47.1 µM (inactive) | 82.2 µM (inactive) | 60 µM (inactive) | 47.1 µM (inactive) | 81.7 µM (inactive)
8 | Clc1nc(Cl)c(CBr)c(Cl)n1 | 3.25 µM (inactive) | 13.5 µM (inactive) | 0.867 µM (active) | 4.7 µM (inactive) | 1.89 µM (inactive) | 6.85 µM (inactive) | 14.6 µM (inactive) | 16.7 µM (inactive) | 16 µM (inactive) | 7.01 µM (inactive) | 4.41 µM (inactive) | – | 8.83 µM (inactive) | 8.45 µM (inactive) | 15 µM (inactive) | 3.27 µM (inactive) | 8.65 µM (inactive) | 2.17 µM (inactive) | 2.99 µM (inactive) | 5.04 µM (inactive)
